Experimental data reported in ChEMBL document CHEMBL5614417, “Discovery of AMPs from random peptides via deep learning-based model and biological activity validation” (Eur J Med Chem, 2024).
Where a SMILES comes first, the peptide text is derived from it.

Experiments:
Format in all cases: functional
[1] = test system: Staphylococcus aureus; assay: Antibacterial activity against Staphylococcus aureus ATCC 25923 incubated for 18 hrs by visual inspection method
[2] = test system: Staphylococcus epidermidis; assay: Antibacterial activity against Staphylococcus epidermidis ATCC 12228 incubated for 18 hrs by visual inspection method
[3] = test system: Bacillus subtilis; assay: Antibacterial activity against Bacillus subtilis ATCC 23857 incubated for 18 hrs by visual inspection method
[4] = test system: Escherichia coli; assay: Antibacterial activity against Escherichia coli ATCC 25922 incubated for 18 hrs by visual inspection method
[5] = test system: Acinetobacter baumannii; assay: Antibacterial activity against Acinetobacter baumannii ATCC 19606 incubated for 18 hrs by visual inspection method
[6] = test system: Klebsiella pneumoniae; assay: Antibacterial activity against Klebsiella pneumoniae ATCC 700603 incubated for 18 hrs by visual inspection method
[7] = test system: Escherichia coli; assay: Antibacterial activity against ESBL Escherichia coli 1 incubated for 18 hrs by visual inspection method
[8] = test system: Escherichia coli; assay: Antibacterial activity against ESBL Escherichia coli 2 incubated for 18 hrs by visual inspection method
[9] = test system: Escherichia coli; assay: Antibacterial activity against ESBL Escherichia coli 3 incubated for 18 hrs by visual inspection method
[10] = test system: Escherichia coli; assay: Antibacterial activity against ESBL Escherichia coli 4 incubated for 18 hrs by visual inspection method
[11] = test system: Escherichia coli; assay: Antibacterial activity against ESBL Escherichia coli 5 incubated for 18 hrs by visual inspection method
[12] = test system: Acinetobacter baumannii; assay: Antibacterial activity against multidrug resistant Acinetobacter baumannii 1 incubated for 18 hrs by visual inspection method
[13] = test system: Acinetobacter baumannii; assay: Antibacterial activity against multidrug resistant Acinetobacter baumannii 2 incubated for 18 hrs by visual inspection method
[14] = test system: Acinetobacter baumannii; assay: Antibacterial activity against multidrug resistant Acinetobacter baumannii 3 incubated for 18 hrs by visual inspection method
[15] = test system: Acinetobacter baumannii; assay: Antibacterial activity against multidrug resistant Acinetobacter baumannii 4 incubated for 18 hrs by visual inspection method
[16] = test system: Acinetobacter baumannii; assay: Antibacterial activity against multidrug resistant Acinetobacter baumannii 5 incubated for 18 hrs by visual inspection method

MIC [1] [µg/mL]	MIC [2] [µg/mL]	MIC [3] [µg/mL]	MIC [4] [µg/mL]	MIC [5] [µg/mL]	MIC [6] [µg/mL]	Compound	MIC [7] [µg/mL]	MIC [8] [µg/mL]	MIC [9] [µg/mL]	MIC [10] [µg/mL]	MIC [11] [µg/mL]	MIC [12] [µg/mL]	MIC [13] [µg/mL]	MIC [14] [µg/mL]	MIC [15] [µg/mL]	MIC [16] [µg/mL]
> 60	> 60	> 60	> 60	> 60	> 60	CSCC[C@H](NC(=O)[C@H](Cc1c[nH]c2ccccc12)NC(=O)[C@H](CCSC)NC(=O)[C@H](Cc1c[nH]c2ccccc12)NC(=O)[C@@H](NC(=O)[C@H](Cc1c[nH]c2ccccc12)NC(=O)[C@H](Cc1c[nH]c2ccccc12)NC(=O)[C@H](CCSC)NC(=O)[C@H](CCCCN)NC(=O)[C@H](CS)NC(=O)CNC(=O)[C@H](Cc1ccccc1)NC(=O)[C@@H](N)CO)C(C)C)C(N)=O (H-SFGCKMWWVWMWM-NH2)	–	–	–	–	–	–	–	–	–	–
> 60	> 60	> 60	> 60	> 60	> 60	CC[C@H](C)[C@H](NC(=O)[C@H](CC(C)C)NC(=O)[C@H](CS)NC(=O)[C@@H]1CCCN1C(=O)[C@H](CC(C)C)NC(=O)[C@@H](NC(=O)[C@H](CS)NC(=O)[C@H](Cc1ccccc1)NC(=O)[C@@H](N)Cc1c[nH]c2ccccc12)[C@@H](C)CC)C(=O)N[C@@H](Cc1ccccc1)C(=O)N[C@@H](CCCCN)C(=O)N[C@@H](Cc1c[nH]c2ccccc12)C(=O)N[C@@H](CCC(N)=O)C(N)=O (H-WFCILPCLIFKWQ-NH2)	–	–	–	–	–	–	–	–	–	–
> 60	> 60	> 60	> 60	> 60	> 60	CC[C@H](C)[C@H](NC(=O)[C@H](CCCNC(=N)N)NC(=O)[C@H](Cc1c[nH]c2ccccc12)NC(=O)[C@@H](NC(=O)[C@H](Cc1c[nH]cn1)NC(=O)[C@H](Cc1c[nH]c2ccccc12)NC(=O)[C@@H](N)Cc1c[nH]c2ccccc12)[C@@H](C)CC)C(=O)N[C@@H](CO)C(=O)N[C@@H](CCSC)C(=O)N[C@@H](Cc1c[nH]c2ccccc12)C(=O)N[C@@H](CCSC)C(=O)N[C@@H](CS)C(=O)NCC(N)=O (H-WWHIWRISMWMCG-NH2)	–	–	–	–	–	–	–	–	–	–
1.88	3.75	3.75	–	–	–	GRAMICIDIN	–	–	–	–	–	–	–	–	–	–

Continued, compound first:

Compound	MIC [1] [µg/mL]	MIC [2] [µg/mL]	MIC [3] [µg/mL]	MIC [4] [µg/mL]	MIC [5] [µg/mL]	MIC [6] [µg/mL]	MIC [7] [µg/mL]	MIC [8] [µg/mL]	MIC [9] [µg/mL]	MIC [10] [µg/mL]	MIC [11] [µg/mL]	MIC [12] [µg/mL]	MIC [13] [µg/mL]	MIC [14] [µg/mL]	MIC [15] [µg/mL]	MIC [16] [µg/mL]
CC[C@H](C)[C@H](NC(=O)[C@H](CCCCN)NC(=O)[C@H](Cc1c[nH]c2ccccc12)NC(=O)[C@H](C)NC(=O)[C@@H]1CCCN1C(=O)[C@H]1CCCN1C(=O)[C@@H](CC(C)C)NC(=O)[C@H](N)C(C)C)C(=O)N[C@@H](CCCCN)C(=O)N[C@@H](CCCCN)C(=O)NCC(=O)N[C@@H](Cc1ccccc1)C(=O)N[C@@H](CCC(N)=O)C(N)=O	> 60	> 60	> 60	> 60	> 60	> 60	–	–	–	–	–	–	–	–	–	–
CC[C@H](C)[C@H](N)C(=O)N[C@H](C(=O)N[C@@H](Cc1ccccc1)C(=O)N[C@@H](CC(C)C)C(=O)N[C@H](C(=O)N[C@@H](CO)C(=O)NCC(=O)N[C@@H](Cc1ccccc1)C(=O)N[C@@H](CCCCN)C(=O)N[C@@H](CS)C(=O)N[C@@H](Cc1ccccc1)C(=O)N[C@@H](CCCCN)C(=O)NCC(N)=O)[C@@H](C)CC)C(C)C (H-IVFLISGFKCFKG-NH2)	> 60	> 60	> 60	> 60	> 60	> 60	–	–	–	–	–	–	–	–	–	–
CC[C@H](C)[C@H](NC(=O)CNC(=O)[C@@H](NC(=O)[C@H](Cc1ccccc1)NC(=O)[C@@H](NC(=O)[C@H](Cc1c[nH]cn1)NC(=O)[C@H](Cc1c[nH]c2ccccc12)NC(=O)[C@@H](NC(=O)[C@@H]1CCCN1)[C@@H](C)O)[C@@H](C)CC)[C@@H](C)CC)C(=O)N[C@@H](Cc1c[nH]c2ccccc12)C(=O)N[C@@H](CO)C(=O)N[C@@H](CS)C(=O)N[C@@H](Cc1c[nH]c2ccccc12)C(N)=O (H-PTWHIFIGIWSCW-NH2)	> 60	> 60	> 60	> 60	> 60	> 60	–	–	–	–	–	–	–	–	–	–
CC[C@H](C)[C@H](NC(=O)[C@H](C)NC(=O)[C@H](Cc1c[nH]c2ccccc12)NC(=O)[C@H](CCCCN)NC(=O)[C@H](C)NC(=O)CNC(=O)[C@@H](NC(=O)[C@@H](N)CO)[C@@H](C)CC)C(=O)N[C@@H](Cc1c[nH]c2ccccc12)C(=O)N[C@@H](Cc1c[nH]c2ccccc12)C(=O)N[C@@H](Cc1c[nH]c2ccccc12)C(=O)N[C@@H](CCSC)C(=O)N[C@H](C(N)=O)C(C)C (H-SIGAKWAIWWWMV-NH2)	> 60	> 60	> 60	> 60	> 60	> 60	–	–	–	–	–	–	–	–	–	–
CC(C)C[C@H](NC(=O)[C@H](CCCCN)NC(=O)[C@H](CS)NC(=O)[C@H](CS)NC(=O)[C@@H](NC(=O)CNC(=O)[C@@H](NC(=O)[C@H](Cc1ccccc1)NC(=O)[C@H](CCC(N)=O)NC(=O)[C@H](CS)NC(=O)[C@@H](N)Cc1c[nH]c2ccccc12)C(C)C)C(C)C)C(=O)N[C@@H](CS)C(=O)N[C@H](C(N)=O)C(C)C (H-WCQFVGVCCKLCV-NH2)	> 60	> 60	> 60	> 60	> 60	> 60	–	–	–	–	–	–	–	–	–	–
CC[C@H](C)[C@H](NC(=O)[C@@H](N)Cc1c[nH]c2ccccc12)C(=O)N[C@@H](Cc1c[nH]c2ccccc12)C(=O)N[C@H](C(=O)N[C@@H](Cc1ccccc1)C(=O)N[C@@H](CCCCN)C(=O)N[C@@H](Cc1c[nH]cn1)C(=O)N[C@@H](CC(C)C)C(=O)NCC(=O)N[C@@H](CS)C(=O)N[C@@H](CCC(N)=O)C(=O)N[C@@H](CCCCN)C(=O)N[C@@H](CCC(N)=O)C(N)=O)[C@@H](C)O (H-WIWTFKHLGCQKQ-NH2)	> 60	> 60	> 60	> 60	> 60	> 60	–	–	–	–	–	–	–	–	–	–
POLYMYXIN B	–	–	–	1.88	1.88	1.88	1.88	1.88	1.88	1.88	1.88	1.88	1.88	1.88	1.88	1.88
